Where two headings read alike, the source gives them in different places.
Key:
[1] = tested on: HSV-1 (strain RD); test: Virucidal effect on HSV-1: virus incubated 2 h with compound, residual titer by CPE in Vero cells; assay type: cell-based, herpes simplex virus type 1; settings: for IC50: Human alphaherpesvirus 1, Vero, HSV-1
Experimental: Next, the virucidal effect of the drugs on HSV-1 in PBS and Pluronic F-127 was studied, in accordance with CC50 (Figure 5). The virucidal activity tests were performed by incubating HSV-1 with different concentrations of 3a,b and TMePyP for 2 h at a temperature of 36.8 °C and 5% CO2. Untreated viral suspensions were used as a control. Then, samples were added to a Vero culture seeded in 96-well plates, and the residual virus content was evaluated by developing a cytopathic effect on the fourth day of cultivation.
HSV-1 at tenfold dilutions DMEM-1% FCS (900 µL) was incubated with different concentration of the compounds (100 µL) at the final concentration ranging from 3 µM to 100 µM in DMEM-1% FCS or without of compound, each sample in volume 1 mL, for 2 h at 36.8 °C in 5% CO2 atmosphere. After treatment, the samples were applied to the Vero cell (the day before, cells were seeded at the rate of 15,000 cells/well in […] DMEM-5% FCS in 96-well plates) monolayers in 96-well plates (100 µL/well), and, after 4 days of cultivation at 36.8 °C in 5% CO2 atmosphere, titers were calculated based on the development of CPE, and the inhibitory activity of each compounds was calculated in relation to the control (HSV-1 without compounds). Data are reported as means of three independent assays, each run in triplicate.
Figure 5 Virucidal activity of 3a (a), 3b (b), TMePyP (c) dissolved in PBS and Pluronic F-127 regarding HSV-1. The results are presented as the virus titer percentage, with the porphyrin regarding the virus titer in control, which was taken as 100%. Each point represents the mean ± deviation of three experiments with three replicates.
Fig. 15S. Virucidal activity of 3a (A), 3b (B), TMePyP (C) compounds dissolved in PBS and Pluronic F127 regarding to HSV-1. HSV-1 at tenfold dilutions DMEM-1%FCS was incubated with different concentration of the compounds ranging from 3 µM/L to 100 µM/L in DMEM-1% FCS or without of compound , each sample in volume 1mL, for 2 hours at 36.8°C in 5% CO 2 atmosphere. After treatment the samples were applied to the Vero DMEM-5%FCS in 96 wells plates) monolayers in 96 wells plates (100 µL/well). and after 4 days of cultivation at 36.8 °C in 5% CO 2 atmosphere titers were calculated based on the development of CPE and the inhibi-tory activity of each compounds was calculated in relation to the control (HSV -1 without compounds). Data are reported as means of three independent assays, each run in tripli cate. The results were processed using the GraphPad Prism 5 program. […]

[2] = tested on: Vero cells; test: Vero cell viability, MTT test, 72 h; assay type: cell-based, African green monkey; settings: Vero cells; for CC50: Pluronic F-127 (F127) micellar formulation, MTT, 72 h
Experimental: (§1) Before testing antiviral activity, the effect of porphyrins dissolved in PBS and Pluronic F-127 on the viability of Vero cells was evaluated. Cells were incubated for 72 h using different concentrations of porphyrins (0.39–100 μM). Viability was assessed using the MTT test (Figure S13, Table S1, Supplementary Information). The viability of Vero cells depends on the porphyrins’ structure and formulation.
(§2) Cell viability was assessed by MTT reduction assay. Briefly, confluent monolayer Vero cells in 96-well plates (15000 cells/well) were incubated for 72 h with different concentrations of the compounds ranging from 0.39 µM to 100 µM in DMEM-1% FCS at 36.8 °C in 5% CO2 atmosphere. Next, cells were incubated for 1 h with 1.0 mg/mL of 3-(4,5-dimethylthiazol-2-y1)-2,5-diphenyltetrazolium bromide (MTT, PanEco, Moscow, Russia) at 36.8 °C, and then the solution was removed, and precipitated formazan was diluted in DMSO (PanEco, Moscow, Russia). The solution was read on a spectrophotometer at 540 nm. For each concentration, the average cell viability was calculated from the data of three experiments with three replicates each and was expressed as a percentage compared to the untreated cells (100%).
(§3) Table s1. Vero cell viability after exposure to 3a, 3b, TMEPyP compounds dissolved in PBS and Pluronic F-127. Different concen-
(§4) trations of compounds were applied to the cell monolayer and after incubation for 3 days, the number of living cells was calculated
(§5) in the MTT test. Each point represents the mean ± standard deviation of three experiments with […] each. n.d. –not done.
(§6) Compound Concentration, µM/L Viability % ±s.d.

[3] = Vero cell viability, MTT test, 72 h; assay type: cell-based, African green monkey; settings: African green monkey, Vero cells, MTT; for viability at 72 h, 0.39 µM: 0.39 µM/L; for viability at 72 h, 0.39 µM / viability at 72 h, 0.78 µM / viability at 72 h, 1.56 µM / viability at 72 h, 3.13 µM / viability at 72 h, 6.25 µM / viability at 72 h, 12.5 µM / viability at 72 h, 25 µM / viability at 72 h, 50 µM / viability at 72 h, 100 µM: Vero, 3 days, read-out: Viability % ±s.d.; for viability at 72 h, 0.78 µM: 0.78 µM/L; for viability at 72 h, 1.56 µM: 1.56 µM/L; for viability at 72 h, 3.13 µM: 3.13 µM/L; for viability at 72 h, 6.25 µM: 6.25 µM/L; for viability at 72 h, 12.5 µM: 12.50 µM/L; for viability at 72 h, 25 µM: 25 µM/L; for viability at 72 h, 50 µM: 50 µM/L; for viability at 72 h, 100 µM: 100 µM/L; for CC50 at 72 h: dissolved in PBS
Experimental: as §1, §2, §3, §4, §5, §6

[4] = Pluronic F-127 (F127) micellar formulation

Structure (SMILES) | IC50 [1, 4] | CC50 [2] | viability at 72 h, 0.39 µM ([3]; +F127 (Pluronic F-127)) | viability at 72 h, 0.78 µM ([3]; +F127 (Pluronic F-127)) | viability at 72 h, 1.56 µM ([3]; +F127 (Pluronic F-127)) | viability at 72 h, 3.13 µM ([3]; +F127 (Pluronic F-127)) | viability at 72 h, 6.25 µM ([3]; +F127 (Pluronic F-127)) | viability at 72 h, 12.5 µM ([3]; +F127 (Pluronic F-127)) | viability at 72 h, 25 µM ([3]; +F127 (Pluronic F-127)) | viability at 72 h, 50 µM ([3]; +F127 (Pluronic F-127)) | viability at 72 h, 100 µM ([3]; +F127 (Pluronic F-127)) | viability at 72 h, 3.13 µM ([3]; -F127 (PBS)) | viability at 72 h, 6.25 µM ([3]; -F127 (PBS)) | viability at 72 h, 12.5 µM ([3]; -F127 (PBS)) | viability at 72 h, 25 µM ([3]; -F127 (PBS)) | viability at 72 h, 50 µM ([3]; -F127 (PBS)) | viability at 72 h, 100 µM ([3]; -F127 (PBS)) | CC50 at 72 h [3] | other results
C[n+]1ccc(-c2c3nc(c(-c4cc[n+](C)cc4)c4ccc([nH]4)c(-c4cc[n+](C)cc4)c4nc(c(-c5cc[n+](C)cc5)c5ccc2[nH]5)C=C4)C=C3)cc1 [TMePyP, 5,10,15,20-tetrakis(1-methyl-4-pyridinio)porphyrin tetraiodide, reference compound] | 13.3 µM | > 100 µM | 82.9 ± 5.4% | 79.9 ± 2.3% | 90.2 ± 9.7% | 95.2 ± 6% | 90.4 ± 2.7% | 83 ± 8.6% | 95.2 ± 3.2% | 114 ± 6.2% | 104 ± 1.2% | 101 ± 5% | 98.5 ± 5% | 97.4 ± 4.6% | 95.3 ± 5.3% | 93.7 ± 5.5% | 89.6 ± 6.8% | > 100 µM | IC50 ([1]; dissolved in PBS): 2.3 µM
O=C(CC[n+]1ccccc1)Oc1ccc(-c2c3nc(c(-c4ccc(OC(=O)CC[n+]5ccccc5)cc4)c4ccc([nH]4)c(-c4ccc(OC(=O)CC[n+]5ccccc5)cc4)c4nc(c(-c5ccc(OC(=O)CC[n+]6ccccc6)cc5)c5ccc2[nH]5)C=C4)C=C3)cc1 [3a] | 99.8 µM | > 100 µM | 93 ± 4.6% | 99.2 ± 4.2% | 95.6 ± 4.2% | 90.8 ± 2.3% | 90.3 ± 7.8% | 91.7 ± 2.8% | 89.1 ± 4.1% | 92.9 ± 2% | 80.4 ± 1.8% | 106 ± 4.5% | 105 ± 8.7% | 94.7 ± 5.1% | 90.9 ± 10% | 91.9 ± 2.2% | 76.8 ± 6.9% | > 100 µM | concentration showing a virucidal effect ([1]; PBS and Pluronic F-127, only at the maximum concentration): 100 µM; toxic concentration ([2]; used to choose concentrations for the virucidal test): > 100 µM; viability at 72 h, 0.39 µM ([3]; -F127 (PBS)): 94.6 ± 2.9%; viability at 72 h, 0.78 µM ([3]; -F127 (PBS)): 102 ± 4.2%; viability at 72 h, 1.56 µM ([3]; -F127 (PBS)): 108 ± 15.4%

Source: publication PMC7999199, “Novel Cationic Meso-Arylporphyrins and Their Antiviral Activity against HSV-1” (Pharmaceuticals, 2021)
